Calls of active or inactive are those of the source.
Experiments:
[1] = microbe, parasite or virus in culture; format: functional; details: Mycobacterium tuberculosis
Vero = Vero cell cytotoxicity, cytotoxicity control for flavivirus capping enzyme inhibitors (AID 588742); format: functional; details: Chlorocebus sabaeus
[2] = test system: Streptococcus sp. 'group A'; test: growth inhibition of control SK(-) GAS strain, dose response, counter-screen for streptokinase expression inhibitor project, luminescence, kanamycin, BacTiterGlo, confirmation (AID 1900); format: functional, organism-based
Streptokinase A = molecular target: T1, Streptokinase A (Streptococcus pyogenes serotype M1, UniProt P10520); test: S. pyogenes streptokinase expression inhibitors, potency, dose response, plasminogen activation absorbance, OD405 (AID 1914); format: functional, Streptococcus pyogenes M1 GAS;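 further: secreted streptokinase activity via plasminogen activation per viability signal from cell pellet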
T1 sequence (P10520 whole entry): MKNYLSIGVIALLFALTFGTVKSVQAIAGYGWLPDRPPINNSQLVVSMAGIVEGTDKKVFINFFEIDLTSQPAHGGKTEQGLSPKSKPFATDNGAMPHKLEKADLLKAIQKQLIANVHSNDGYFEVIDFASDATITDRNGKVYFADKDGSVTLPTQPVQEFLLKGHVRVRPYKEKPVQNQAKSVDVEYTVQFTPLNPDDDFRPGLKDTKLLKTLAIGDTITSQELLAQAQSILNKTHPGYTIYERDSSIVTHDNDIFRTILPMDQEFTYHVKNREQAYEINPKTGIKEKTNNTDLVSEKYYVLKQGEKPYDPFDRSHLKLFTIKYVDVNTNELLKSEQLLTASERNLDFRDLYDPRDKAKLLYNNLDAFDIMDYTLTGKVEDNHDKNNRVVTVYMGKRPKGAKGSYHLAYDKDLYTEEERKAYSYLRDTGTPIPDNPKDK

Streptococcus = test: Group A Streptococcus viability loss, dose response, counter-screen for streptokinase expression inhibitor project, luminescence, BacTiterGlo (AID 1915); format: functional, organism-based;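 further: potency for reduction of bacterial viability or growth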
[3] = molecular target: T2, Ubiquitin-conjugating enzyme E2 N (Homo sapiens, UniProt P61088); format: functional;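 further: Dose-response confirmation in a TR-FRET assay detecting UBC13-driven polyubiquitin chain formation, inhibition measured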
T2 sequence (P61088 whole entry): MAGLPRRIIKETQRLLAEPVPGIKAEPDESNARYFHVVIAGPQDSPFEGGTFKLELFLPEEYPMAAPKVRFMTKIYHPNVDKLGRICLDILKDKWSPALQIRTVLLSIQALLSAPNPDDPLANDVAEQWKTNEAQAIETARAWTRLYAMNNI

HEK293 [4] = test: inhibitors of LMP1-driven NF-kB reporter, dose response, cell-based, HEK293, luciferase, cherry-pick (AID 588343); format: functional; details: Homo sapiens
[5] = molecular target: T3, Polyadenylate-binding protein 1 (Homo sapiens, UniProt P11940); test: PABP1 MLLE–PAM2 interaction inhibitors, dose response, miRNA deadenylation inhibitor project, biochemical, fluorescence polarization, Cy5-PAM2 peptide, secondary (AID 602260); format: functional; details: read-out: IC50_Mean
[6] = molecular target: T3, Polyadenylate-binding protein 1; test: PABP1 MLLE–PAM2 binding inhibitor potency, dose response, biochemical, fluorescence polarization, FITC-PAM2 peptide (AID 602259); format: functional; details: read-out: IC50_Mean
[7] = molecular target: Adenosylmethionine-8-amino-7-oxononanoate aminotransferase (Mycobacterium tuberculosis, UniProt P9WQ81); test: Mycobacterium tuberculosis BioA enzyme inhibitor Measured in Biochemical System Using Plate Reader - 2163-02_Inhibitor_Dose_CherryPick_Activity.; format: functional, Mycobacterium tuberculosis UT205
Large T antigen = Large T antigen (Simian virus 40, UniProt P03070); format: functional, Betapolyomavirus macacae;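 further: Confirmatory-stage PubChem screen for compounds that inhibit SV40 T antigen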
Beta-lactamase [8] = molecular target: Beta-lactamase (Salmonella choleraesuis (strain SC-B67), UniProt Q5J463); test: Epi-absorbance-based counterscreen for selective VIM-2 inhibitors: dose response biochemical high throughput screening assay to identify inhibitors of TEM-1 serine-beta-lactamase.
Beta-lactamase [9] = molecular target: T4, Beta-lactamase (Pseudomonas aeruginosa, UniProt Q79MP6); test: IMP-1 metallo-beta-lactamase inhibitors, dose response, selectivity assay for VIM-2 inhibitor project, biochemical, epi-absorbance (AID 1920)
Beta-lactamase [10] = molecular target: T4, Beta-lactamase; test: […] counterscreen for selective VIM-2 inhibitors: dose response biochemical high throughput screening assay to identify inhibitors of IMP-1 metallo-beta-lactamase.
[11] = molecular target: DNA dC->dU-editing enzyme APOBEC-3G (Homo sapiens, UniProt Q9HC16); test: Dose Response confirmation of small molecule APOBEC3G DNA Deaminase Inhibitors via a fluorescence-based single-stranded DNA deaminase assay. [Related pubchem assays (depositor defined):AID493012, AID493028]; format: functional
[12] = molecular target: 26S proteasome non-ATPase regulatory subunit 14 (Homo sapiens, UniProt O00487); test: inhibition of proteasome subunit RPN11 – biochemical, fluorescence polarization, uHTS hits, confirmation (AID 602368); format: functional
[13] = molecular target: 72 kDa type IV collagenase (Homo sapiens, UniProt P08253); test: Dose Response validation of uHTS RPN11 inhibitor hits using a MMP-2 Fluorescence assay.; format: functional
Prothrombin = Prothrombin (Bos taurus, UniProt P00735); test: thrombin inhibition, dose response, biochemical, fluorescence polarization, uHTS hits (AID 602369); format: functional
[14] = molecular target: Mitogen-activated protein kinase 9 (Homo sapiens, UniProt P45984); format: functional;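 further: value from a kinome panel profiling assay, MAPK9 panel entry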
[15] = inhibitors of intracellular T. cruzi replication, confirmation, NIH3T3 host cells, beta-gal luminescence (AID 2044); format: functional, cell-based;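 further: intracellular parasites grown in NIH/3T3 mouse fibroblasts as host cells; luminescent beta-galactosidase reporter signal from transgenic T. cruzi replicating inside host cells; inhibitors lower the luminescence signal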
[16] = cytotoxicity toward NIH3T3 fibroblasts, dose response, counter-screen, cell-based, ATP luminescence, mouse fibroblasts (AID 2010); format: functional;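 further: cells exposed to compound for about 90 hours before reading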
cells = format: functional
HEK293 [17] = test: cells; format: functional, cell-based; details: Homo sapiens
[18] = molecular target: T5, Nuclear receptor subfamily 0 group B member 1 (Homo sapiens, UniProt P51843); test: Luminescence-based cell-based high throughput dose response assay for inhibitors of the orphan nuclear receptor subfamily 0, group B, member 1 (DAX1; NR0B1). [Related pubchem assays (depositor defined):AID504766, AID504790]; format: functional
T5 sequence (P51843 whole entry): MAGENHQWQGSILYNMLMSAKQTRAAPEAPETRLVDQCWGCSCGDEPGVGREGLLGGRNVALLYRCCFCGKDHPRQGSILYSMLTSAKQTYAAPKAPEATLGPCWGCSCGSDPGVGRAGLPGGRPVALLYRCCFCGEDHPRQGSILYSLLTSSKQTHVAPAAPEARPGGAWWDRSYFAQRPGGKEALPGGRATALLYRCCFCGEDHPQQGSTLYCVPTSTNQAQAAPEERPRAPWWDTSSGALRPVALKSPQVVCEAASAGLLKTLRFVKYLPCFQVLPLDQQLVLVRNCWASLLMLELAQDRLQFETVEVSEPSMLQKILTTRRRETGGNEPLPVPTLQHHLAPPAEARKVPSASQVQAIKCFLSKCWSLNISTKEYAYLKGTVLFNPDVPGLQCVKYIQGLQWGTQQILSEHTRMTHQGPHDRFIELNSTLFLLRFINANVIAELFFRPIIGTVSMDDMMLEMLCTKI

T3 sequence (P11940 whole entry): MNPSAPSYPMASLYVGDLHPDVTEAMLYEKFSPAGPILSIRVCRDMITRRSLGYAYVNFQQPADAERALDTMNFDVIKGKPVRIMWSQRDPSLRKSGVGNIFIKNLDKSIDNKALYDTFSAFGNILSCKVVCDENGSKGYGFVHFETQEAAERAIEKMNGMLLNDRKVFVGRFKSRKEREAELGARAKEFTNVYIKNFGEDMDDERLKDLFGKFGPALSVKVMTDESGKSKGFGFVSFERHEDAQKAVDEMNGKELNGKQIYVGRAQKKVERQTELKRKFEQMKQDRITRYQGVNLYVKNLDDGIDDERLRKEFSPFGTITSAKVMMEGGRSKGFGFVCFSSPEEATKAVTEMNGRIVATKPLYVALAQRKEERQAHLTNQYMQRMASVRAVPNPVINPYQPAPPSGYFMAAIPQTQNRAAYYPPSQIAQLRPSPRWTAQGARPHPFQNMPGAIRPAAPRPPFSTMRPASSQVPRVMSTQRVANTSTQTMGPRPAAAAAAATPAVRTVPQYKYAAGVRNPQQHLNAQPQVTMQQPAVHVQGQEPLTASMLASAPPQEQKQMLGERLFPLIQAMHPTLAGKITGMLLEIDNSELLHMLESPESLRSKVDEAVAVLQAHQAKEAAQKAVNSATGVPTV
T4 sequence (Q79MP6 whole entry): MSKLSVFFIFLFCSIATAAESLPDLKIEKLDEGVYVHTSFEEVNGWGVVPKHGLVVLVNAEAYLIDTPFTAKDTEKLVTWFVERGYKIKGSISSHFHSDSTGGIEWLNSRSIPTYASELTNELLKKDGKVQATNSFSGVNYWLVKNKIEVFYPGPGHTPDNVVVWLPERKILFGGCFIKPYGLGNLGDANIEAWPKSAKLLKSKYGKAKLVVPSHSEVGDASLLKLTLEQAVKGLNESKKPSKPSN
Adenosylmethionine-8-amino-7-oxononanoate aminotransferase, sequence (P9WQ81 whole entry): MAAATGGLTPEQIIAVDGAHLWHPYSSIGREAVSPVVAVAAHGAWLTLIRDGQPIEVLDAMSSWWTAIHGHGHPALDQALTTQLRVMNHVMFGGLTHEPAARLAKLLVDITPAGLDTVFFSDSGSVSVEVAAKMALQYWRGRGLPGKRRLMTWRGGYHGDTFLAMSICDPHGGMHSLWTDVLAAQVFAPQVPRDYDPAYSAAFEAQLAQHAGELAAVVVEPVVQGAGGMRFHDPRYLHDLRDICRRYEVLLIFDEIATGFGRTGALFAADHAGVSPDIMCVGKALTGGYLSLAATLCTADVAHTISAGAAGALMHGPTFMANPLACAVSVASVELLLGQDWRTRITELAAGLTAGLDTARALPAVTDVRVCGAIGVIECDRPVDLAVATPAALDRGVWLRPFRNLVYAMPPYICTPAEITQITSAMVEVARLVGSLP
Large T antigen, sequence (P03070 whole entry): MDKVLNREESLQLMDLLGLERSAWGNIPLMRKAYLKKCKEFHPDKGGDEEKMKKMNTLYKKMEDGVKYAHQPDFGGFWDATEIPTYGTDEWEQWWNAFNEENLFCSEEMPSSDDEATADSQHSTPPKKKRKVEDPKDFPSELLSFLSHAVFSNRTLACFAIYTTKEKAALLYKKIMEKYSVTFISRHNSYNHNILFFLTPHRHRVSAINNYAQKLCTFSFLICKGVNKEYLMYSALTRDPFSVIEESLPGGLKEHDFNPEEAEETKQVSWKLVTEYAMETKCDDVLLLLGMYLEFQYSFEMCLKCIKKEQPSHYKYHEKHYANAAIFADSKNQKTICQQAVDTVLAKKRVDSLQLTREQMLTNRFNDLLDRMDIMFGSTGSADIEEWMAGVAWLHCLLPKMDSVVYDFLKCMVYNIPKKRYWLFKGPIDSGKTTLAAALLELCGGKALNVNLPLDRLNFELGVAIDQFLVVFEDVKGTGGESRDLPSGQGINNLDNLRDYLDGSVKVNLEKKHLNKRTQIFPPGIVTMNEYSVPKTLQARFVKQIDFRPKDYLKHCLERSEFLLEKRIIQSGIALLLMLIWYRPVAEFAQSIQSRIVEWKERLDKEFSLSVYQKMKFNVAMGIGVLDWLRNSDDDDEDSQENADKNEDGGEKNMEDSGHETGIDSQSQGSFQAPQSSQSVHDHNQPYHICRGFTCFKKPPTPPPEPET
DNA dC->dU-editing enzyme APOBEC-3G, sequence (Q9HC16 whole entry): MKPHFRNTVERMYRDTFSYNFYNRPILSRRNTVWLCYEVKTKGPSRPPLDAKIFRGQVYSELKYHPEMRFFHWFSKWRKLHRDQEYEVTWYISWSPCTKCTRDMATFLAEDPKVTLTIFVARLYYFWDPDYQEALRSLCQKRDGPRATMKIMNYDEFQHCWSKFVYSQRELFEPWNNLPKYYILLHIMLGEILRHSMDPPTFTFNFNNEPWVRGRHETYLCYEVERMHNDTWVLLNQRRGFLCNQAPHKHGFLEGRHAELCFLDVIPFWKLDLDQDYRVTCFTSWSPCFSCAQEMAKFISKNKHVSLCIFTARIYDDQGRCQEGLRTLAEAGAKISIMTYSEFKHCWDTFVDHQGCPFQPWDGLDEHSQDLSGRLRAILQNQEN
26S proteasome non-ATPase regulatory subunit 14, sequence (O00487 whole entry): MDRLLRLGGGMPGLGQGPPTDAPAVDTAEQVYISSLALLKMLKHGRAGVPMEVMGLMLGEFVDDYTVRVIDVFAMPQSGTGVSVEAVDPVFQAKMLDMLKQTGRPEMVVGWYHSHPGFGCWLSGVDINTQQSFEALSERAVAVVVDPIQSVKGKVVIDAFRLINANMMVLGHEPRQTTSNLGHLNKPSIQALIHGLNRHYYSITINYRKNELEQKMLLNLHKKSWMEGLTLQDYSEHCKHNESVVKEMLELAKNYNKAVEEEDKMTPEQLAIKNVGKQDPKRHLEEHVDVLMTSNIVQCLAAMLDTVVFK
Mitogen-activated protein kinase 9, sequence (P45984 whole entry): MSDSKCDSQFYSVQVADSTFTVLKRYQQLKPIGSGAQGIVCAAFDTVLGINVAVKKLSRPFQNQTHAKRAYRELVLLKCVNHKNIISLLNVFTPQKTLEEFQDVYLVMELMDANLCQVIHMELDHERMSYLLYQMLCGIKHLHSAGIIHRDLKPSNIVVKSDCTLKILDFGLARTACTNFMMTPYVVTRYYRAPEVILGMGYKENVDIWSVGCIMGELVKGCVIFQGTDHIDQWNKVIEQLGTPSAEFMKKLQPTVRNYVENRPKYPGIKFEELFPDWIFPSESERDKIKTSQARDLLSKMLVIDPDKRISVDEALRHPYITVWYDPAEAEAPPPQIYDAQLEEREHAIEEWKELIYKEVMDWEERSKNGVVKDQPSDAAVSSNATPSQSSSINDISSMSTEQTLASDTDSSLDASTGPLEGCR
Beta-lactamase (Salmonella choleraesuis (strain SC-B67), UniProt Q5J463), sequence (Q5J463 whole entry): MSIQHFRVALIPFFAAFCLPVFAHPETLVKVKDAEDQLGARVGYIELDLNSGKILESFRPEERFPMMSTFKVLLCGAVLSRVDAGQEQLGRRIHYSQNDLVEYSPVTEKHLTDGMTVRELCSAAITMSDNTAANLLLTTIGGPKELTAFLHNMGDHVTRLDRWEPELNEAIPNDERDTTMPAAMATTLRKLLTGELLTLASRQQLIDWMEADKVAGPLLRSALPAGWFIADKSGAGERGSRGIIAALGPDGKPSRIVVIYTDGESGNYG
72 kDa type IV collagenase, sequence (P08253 whole entry): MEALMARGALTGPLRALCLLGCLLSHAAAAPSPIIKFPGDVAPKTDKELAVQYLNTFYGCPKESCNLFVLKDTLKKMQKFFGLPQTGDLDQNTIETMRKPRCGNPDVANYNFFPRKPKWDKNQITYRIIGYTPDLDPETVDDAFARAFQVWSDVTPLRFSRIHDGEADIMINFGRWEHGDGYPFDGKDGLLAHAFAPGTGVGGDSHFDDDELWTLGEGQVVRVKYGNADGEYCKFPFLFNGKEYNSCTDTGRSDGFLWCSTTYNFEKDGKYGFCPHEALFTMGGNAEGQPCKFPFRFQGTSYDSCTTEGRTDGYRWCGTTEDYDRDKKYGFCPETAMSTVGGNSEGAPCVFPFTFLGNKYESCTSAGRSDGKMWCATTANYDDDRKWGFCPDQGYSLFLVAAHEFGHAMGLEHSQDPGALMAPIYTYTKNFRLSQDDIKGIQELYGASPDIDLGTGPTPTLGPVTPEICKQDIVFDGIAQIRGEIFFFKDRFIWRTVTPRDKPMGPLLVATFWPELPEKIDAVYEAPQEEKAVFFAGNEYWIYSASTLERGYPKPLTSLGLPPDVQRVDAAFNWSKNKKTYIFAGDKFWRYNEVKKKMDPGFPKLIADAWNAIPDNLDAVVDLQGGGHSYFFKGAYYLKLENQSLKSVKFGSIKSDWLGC

Q: For c1ccc(-n2cnc3cc(NCc4cccs4)ccc32)cc1, which CC50 [1] is on record?
A: > 40 µM (active)

Q: What about the CC50 (Vero) of the same molecule?
A: > 40 µM (active)

Q: What does the source list for CCOc1ccc(NC(=S)N=Nc2c(O)[nH]c3ccccc23)cc1?
A: EC50 [2]: 0.465 µM (active); EC50 (Streptokinase A): > 150 µM (not active); EC50 (Streptococcus): 5.53 µM (active); IC50 [3]: > 20 µM (inactive); AC50 (HEK293 [4]): 2.7 µM (active); IC50 [5]: > 66 µM (inactive); IC50 [6]: > 66 µM (inactive)

Q: Which AC50 [7] does the source give for O=C(COc1ccc2ccc(=O)oc2c1)N1CCN(c2ccc(F)cc2)CC1 here?
A: 1 µM (active)

Q: Which results are given for O=c1c(-c2ccc([N+](=O)[O-])cc2)coc2c(O)c(O)ccc12?
A: IC50 (Large T antigen): 13.8 µM (active); CC50 (Vero): 21.4 µM (active)

Q: For CCCCn1c(S)nnc1-c1nn(C)c(C)c1Cl, which IC50 (Beta-lactamase [8]) is on record?
A: > 59.6 µM (inactive)

Q: And the IC50 (Beta-lactamase [9])?
A: > 59.6 µM (inactive)

Q: And the IC50 (Beta-lactamase [10])?
A: > 59.6 µM (inactive)

Q: And the IC50 [11]?
A: 12.5 µM (active)

Q: With Cc1cc(N2CCCC2)c(F)cc1/C=C\[N+](=O)[O-] as the molecule, how does the IC50 [12] read?
A: 14.7 µM (active)

Q: And the IC50 [13]?
A: > 100 µM (inactive)

Q: And the IC50 (Prothrombin)?
A: 20 µM (active)

Q: Which Ki [14] does the source give for CC(C)(C)c1cc(NC(=O)c2cc3ccccc3s2)n(-c2ccc(OCC(=O)O)cc2)n1 here?
A: 3.98 µM (active)

Q: With COC(=O)c1sc(N)c(C(=O)OC)c1CSc1nnc(-c2ccccc2Cl)n1C as the molecule, how does the AC50 [7] read?
A: 1.07 µM (active)

Q: Which EC50 [2] does the source give for Cc1ccc(N/N=C2\CS(=O)(=O)N(C)c3ccsc32)cc1 here?
A: 1.25 µM (active)

Q: And the EC50 (Streptokinase A)?
A: 4.04 µM (active)

Q: What about the EC50 [15] of the same molecule?
A: 2.21 µM (active)

Q: What about the EC50 [16] of the same molecule?
A: > 60 µM (not active)

Q: What about the EC50 (Streptococcus) of the same molecule?
A: 11.3 µM (active)

Q: And the IC50 (cells)?
A: 21.2 µM (active)

Q: What about the IC50 (HEK293 [17]) of the same molecule?
A: > 67.5 µM (inactive)

Q: What about the IC50 [18] of the same molecule?
A: > 67.5 µM (inactive)
